pEC50: −log10 of the molar value.
Assays:
SERCA (SR vesicles) = assay: Activation of SERCA, increase in Vmax; type: biochemical
Method: Test compounds were characterized over a range of concentrations using an NADH-linked, enzyme-coupled ATPase assay. Each well contained 2 mg or 7 mg of SR vesicles (optimized for skeletal or cardiac SR, respectively), 50 mM MOPS (pH 7.0), 100 mM KCl, 5 mM MgCl2, 1 mM EGTA, 0.2 mM NADH, 1 mM phosphoenol pyruvate, 5 IU pyruvate kinase, 5 IU lactate dehydrogenase, and 3.5 mg/mL A23187 (a calcium ionophore), and CaCl2 was added to set free [Ca2+] to the specific values. The assay was started upon addition of ATP at a final concentration of 5 mM, and read in a SpectraMax Plus microplate spectrophotometer and the ATPase activities were fitted using the Hill function.

CSM14.1 cells = assay: ER stress cell survival assay (thapsigargin); type: cell-based; conditions: for Cell Survival: compound 2 μM, about 15 μM thapsigargin, CSM14.1 cells; for pEC50: dose-response;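 on cell survival: survival read as CellTiter-Glo luminescence after overnight incubation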
Method: ER Stress Cell Survival Assay
CSM14.1 cells were maintained in Complete Medium at 32° C.; wherein the Complete Medium contained Dulbecco's modified eagle medium (DMEM) with 10% fetal bovine serum (FSB), 1% L-glutamine, 100 IU/mL penicillin, and 100 μg/mL streptomycin. The cells were recovered from cultures by trypsinization and then seeded in 384 well plates (Greiner #781098) at a concentration of 1,000 cells/well in 20 μL of DMEM Assay Medium, wherein the DMEM Assay Medium contained 2% FBS, 100 IU/mL penicillin, and 100 μg/mL streptomycin. Seeding was performed using a MultiDrop Combi reagent broadcaster. The plates were incubated overnight at 32° C.
A test compound was prepared by 2-fold serial dilution in 100% DMSO using a BIOMEK® 2000 liquid handler (Beckman Coulter). A dose-response curve containing 10 concentrations of the test compound was obtained. Using a BIOMEK® FX liquid handler (Beckman Coulter), 2.5 μL of the test compound was transferred from the 100% DMSO serial dilution plate to an intermediate plate containing 47.5 μL of DMEM Assay Medium containing 2% FBS, 100 IU/mL penicillin, and 100 μg/mL streptomycin and mixed. To reduce or eliminate the interference from the compound's precipitation, 6 μL of the diluted compound was immediately transferred to the assay plate to achieve a high compound concentration of 100 μM in 99% DMEM Assay Medium and 1% DMSO. After the assay plates were incubated for 2 hrs, 4 μL of 112.5 μM thapsigargin (TG) (DMSO stock diluted into Assay TC Medium) was dispensed into each testing well with a MultiDrop Combi reagent broadcaster for a final concentration of about 15 μM TG. The tissue culture media (4 μL) containing vehicle only was transferred manually to each control cell using a 16 channel electronic pipette. […] High luminescence indicates cell survival.
Alternatively, a test compound was tested at a single compound concentration (e.g., 2 μM) to determine the effect of the compound on cell survival in comparison with vehicle.

N2a cells [1] = assay: Protection against hydrogen peroxide-induced cell death, N2a; type: cell-based, mouse; conditions: compound 40 μM; hydrogen peroxide 200 μM
Method: Protection against Hydrogen Peroxide-induced Cell-death. N2a cells grown in 96-well plates were exposed to a test compound (40 μM) for 2 hrs before addition of hydrogen peroxide (200 μM). After 40 min of incubation with hydrogen peroxide, ALAMARBLUE® regent (10% v/v) was added to the wells. Fluorescence reading was taken 2 hrs after the addition of the ALAMARBLUE® regent. Cell-viability was calculated as a percentage of relative fluorescence unit (RFU) compared to control.
(§1) The results are summarized in Table 2, where A represents a value greater than 50% cell rescue, B represents a value between 10% to 50% cell rescue, C represents a value between 1% to 10% cell rescue, and D represents a value no greater than 1% cell rescue.

N2a cells [2] = assay: Protection against thapsigargin (TG)-induced cell death, N2a; type: cell-based, mouse; conditions: compound 20 μM; thapsigargin 1 μM; 24 hrs
Method: Protection against Thapsigargin (TG)-induced Cell-death. Human embryonic kidney (HEK293) cells were grown in Dulbecco's Modified Eagle's Medium (DMEM) with 10% FBS and 1% antibiotic antimycotic solution (ABAM). Mouse neuroblastoma (N2a) cells were grown in 1:1 DMEM:OPTI-MEM® with 5% FBS and 1% ABAM. All cells were grown in 10% CO2 in a humidified environment of the incubator. Cells grown in 96-well plates were exposed to a test compound (20 μM) for 2 hrs before addition of thapsigargin (15 μM for HEK293 cells and 1 μM for N2a cells) to induce ER stress. After incubation in cell-culture incubator for 24 hrs, ALAMARBLUE® regent (10% v/v) was added to the wells. Fluorescence reading was taken 2 hrs after the addition of the ALAMARBLUE® regent. Cell-viability was calculated as a percentage of relative fluorescence unit (RFU) compared to control.
as §1

[3] = Pharmacokinetics in CD-1 mice; type: in vivo, mouse; conditions: CD-1 mice
Method: Pharmacokinetics of test compounds were assessed in CD-1 mice. The compounds were formulated at 1 mg/mL in DMSO/Tween 80/water (10/10/80, vol/vol/vol) and dosed at 2 mg/kg intravenous (i.v.) or 10 mg/kg by oral gavage (P.O.) in triplicate. Blood was drawn at 0.25 h, 0.5 h, 1 hr, 2 hrs, 4 hrs, 8 hrs, and 24 hrs into EDTA containing tubes and plasma was harvested by centrifugation. Plasma (10 μL) containing 50% acetonitrile in water (5 μL) was added to 200 μL of ACN containing an internal standard. The samples were vortexed for 30 s. After centrifugation at […] and 4,000 rpm for 15 min, the supernatant was diluted 3 times with water. Then, 20 μL of diluted supernatant was injected into the LC/MS/MS system for quantitative analysis. The samples were injected onto an Agilent ZORBAX XDB-Phenyl 5μ column (50×2.10 mm). Mobile Phase A was water with 0.1% formic acid. Mobile Phase B was acetonitrile with 0.1% formic acid. Separation was achieved using a gradient of 70% A/30% B to 0% A/100% B over 2.10 min. A Shimadzu LCMS-8050 equipped with a turbo ion spray source was used for all analytical measurements. A positive ion MRM method was developed. Peak areas of the product ion were measured against the peak areas of the internal standard. Data was fit using WinNonLin (Pharsight Corporation, Mountain View, CA).

[4] = mouse, plasma, 2 mg/kg i.v. or 10 mg/kg P.O.

Row | Compound | Increase in Vmax at 10 μM (SERCA (SR vesicles)) | N2a Cells (TG-induced) cell rescue (N2a cells [2]) | also measured
1 | Cc1ccc2cccc(NC(=O)c3ccc(C(C)(C)C)cc3)c2n1 [Compound A4, 4-(tert-Butyl)-N-(2-methylquinolin-8-yl)benzamide] | B′ (B′ represents an increase between 20 to 50%) | – | Cell Survival (CSM14.1 cells): D (D represents a value no greater than 1%); pEC50 (CSM14.1 cells): < 4.00
2 | O=C(Nc1cccc2cccnc12)c1cccc(F)c1 [Compound A7, 3-Fluoro-N-(quinolin-8-yl)benzamide] | B′ (B′ represents an increase between 20 to 50%) | – | –
3 | CCOc1ccccc1C(=O)Nc1cccc2ccc(C)nc12 [Compound A10, 2-Ethoxy-N-(2-methylquinolin-8-yl)benzamide] | C′ (C′ represents an increase no greater than 20%) | – | –
4 | CC(C)Oc1ccc(C(=O)Nc2cccc3cccnc23)cc1 [Compound A11, 4-Isopropoxy-N-(quinolin-8-yl)benzamide] | A′ (A′ represents an increase greater than 50%) | – | –
5 | COc1ccc(CCC(=O)Nc2cccc3ccc(C)nc23)cc1 [Compound A23, 3-(4-Methoxyphenyl)-N-(2-methylquinolin-8-yl)propanamide] | A′ (A′ represents an increase greater than 50%) | – | –
6 | Cc1ccc2cccc(NC(=O)c3cc4ccccc4o3)c2n1 [Compound A27, N-(2-Methylquinolin-8-yl)benzofuran-2-carboxamide] | A′ (A′ represents an increase greater than 50%) | – | N2a Cells (H2O2-induced) cell rescue (N2a cells [1]): A (A represents a value greater than 50% cell rescue); pEC50 (CSM14.1 cells): > 4.70
7 | Cc1ccc2cccc(NC(=O)c3cc4ccccc4s3)c2n1 [Compound B2, N-(2-Methylquinolin-8-yl)benzo[b]thiophene-2-carboxamide] | A′ (A′ represents an increase greater than 50%) | A (A represents a value greater than 50% cell rescue) | N2a Cells (H2O2-induced) cell rescue (N2a cells [1]): B (B represents a value between 10% to 50% cell rescue)
8 | Cc1ccc2cccc(NC(=O)c3ccc(Cl)cc3)c2n1 [Compound C17, 4-Chloro-N-(2-methylquinolin-8-yl)benzamide] | – | – | Cell Survival (CSM14.1 cells): D (D represents a value no greater than 1%)
9 | Cc1ccc2cccc(NC(=O)c3ccc(SC(C)C)cc3)c2n1 [Compound C21, 4-(Isopropylthio)-N-(2-methylquinolin-8-yl)benzamide] | – | – | Cell Survival (CSM14.1 cells): C (C represents a value between 1% and 10%)
10 | CCSc1ccc(C(=O)Nc2cccc3ccc(C)nc23)cc1 [Compound C22, 4-(Ethylthio)-N-(2-methylquinolin-8-yl)benzamide] | – | – | Cell Survival (CSM14.1 cells): D (D represents a value no greater than 1%)
11 | CC(C)Oc1ccc(C(=O)Nc2cccc3ccc(C(=O)O)nc23)cc1 [Compound E1, 8-(4-Isopropoxybenzamido)quinoline-2-carboxylic Acid] | – | A (A represents a value greater than 50% cell rescue) | –
12 | CC(C)Oc1cccc(C(=O)Nc2cccc3ccc(C(=O)O)nc23)c1 [Compound E2, 8-(3-Isopropoxybenzamido)quinoline-2-carboxylic acid] | – | A (A represents a value greater than 50% cell rescue) | –
13 | O=C(O)c1ccc2cccc(NC(=O)c3ccc(Br)s3)c2n1 [Compound E3, 8-(5-Bromothiophene-2-carboxamido)quinoline-2-carboxylic Acid] | – | A (A represents a value greater than 50% cell rescue) | –
14 | O=C(O)c1ccc2cccc(NC(=O)c3cc4ccccc4s3)c2n1 [Compound E4, 8-(Benzo[b]thiophene-2-carboxamido)quinoline-2-carboxylic Acid] | – | B (B represents a value between 10% to 50% cell rescue) | –
15 | Cc1cc(C)n(-c2ccc3cccc(NC(=O)c4cccc(OC(C)C)c4)c3n2)n1 [Compound F1, N-(2-(3,5-Dimethyl-1H-pyrazol-1-yl)quinolin-8-yl)-3-isopropoxybenzamide] | – | A (A represents a value greater than 50% cell rescue) | –
16 | Cc1cc(C)n(-c2ccc3cccc(NC(=O)c4ccc(OC(C)C)cc4)c3n2)n1 [Compound F2, N-(2-(3,5-Dimethyl-1H-pyrazol-1-yl)quinolin-8-yl)-4-isopropoxybenzamide] | – | A (A represents a value greater than 50% cell rescue) | –
17 | Cc1cc(C)n(-c2ccc3cccc(NC(=O)c4ccc(Br)s4)c3n2)n1 [Compound F3, 5-Bromo-N-(2-(3,5-dimethyl-1H-pyrazol-1-yl)quinolin-8-yl)thiophene-2-carboxamide] | – | A (A represents a value greater than 50% cell rescue) | –
18 | Cc1cc(C)n(-c2ccc3cccc(NC(=O)c4cc5ccccc5s4)c3n2)n1 [Compound F4, N-(2-(3,5-Dimethyl-1H-pyrazol-1-yl)quinolin-8-yl)benzo[b]thiophene-2-carboxamide] | – | B (B represents a value between 10% to 50% cell rescue) | –
19 | Cc1ccc2cccc(NC(=O)c3ccc(C)s3)c2n1 [Compound G2, 5-Methyl-N-(2-methylquinolin-8-yl)thiophene-2-carboxamide] | A′ (A′ represents an increase greater than 50%) | – | N2a Cells (H2O2-induced) cell rescue (N2a cells [1]): A (A represents a value greater than 50% cell rescue); F ([3]; 10 mg/kg P.O. vs 2 mg/kg i.v.): 0.85%; AUC [3, 4]: 4.5 ng·h/mL; Cmax [3, 4]: 20 nM; half-life [3, 4]: 33.6 min; pEC50 (CSM14.1 cells): > 4.70
20 | Cc1ccc2cccc(NC(=O)c3sc(Br)cc3Br)c2n1 [Compound G6, 3,5-Dibromo-N-(2-methylquinolin-8-yl)thiophene-2-carboxamide] | C′ (C′ represents an increase no greater than 20%) | – | N2a Cells (H2O2-induced) cell rescue (N2a cells [1]): A (A represents a value greater than 50% cell rescue); pEC50 (CSM14.1 cells): > 4.70
21 | Cc1ccc2cccc(NC(=O)c3cc(Br)c(Br)s3)c2n1 [Compound G7, 4,5-Dibromo-N-(2-methylquinolin-8-yl)thiophene-2-carboxamide] | A′ (A′ represents an increase greater than 50%) | – | N2a Cells (H2O2-induced) cell rescue (N2a cells [1]): A (A represents a value greater than 50% cell rescue); pEC50 (CSM14.1 cells): > 4.70

Source: US11890279B2, “Quinolines that modulate SERCA and their use for treating disease” (Neurodon Corporation, priority 2020, dated 2024)
